Converted amounts (≈) assume the structure as drawn.
What was measured:
[1] = molecular target: T1, Phospho-N-acetylmuramoyl-pentapeptide-transferase (Escherichia coli, UniProt E2QF15); assay: Inhibition of MraY in Escherichia coli
T1 sequence (E2QF15 whole entry): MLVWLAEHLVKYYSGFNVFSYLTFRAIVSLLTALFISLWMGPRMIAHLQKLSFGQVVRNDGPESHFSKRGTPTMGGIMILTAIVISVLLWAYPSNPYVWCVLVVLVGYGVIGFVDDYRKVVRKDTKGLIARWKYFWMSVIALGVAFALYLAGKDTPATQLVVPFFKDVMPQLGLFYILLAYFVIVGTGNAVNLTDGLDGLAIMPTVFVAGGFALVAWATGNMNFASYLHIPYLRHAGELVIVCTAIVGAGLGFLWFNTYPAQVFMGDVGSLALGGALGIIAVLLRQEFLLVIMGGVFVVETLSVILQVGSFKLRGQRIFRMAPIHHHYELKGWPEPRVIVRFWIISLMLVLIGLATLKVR

[2] = Inhibition of Bacterial MraY; set-up: species or system Bacteria
Bacillus subtilis = assay: Antibacterial activity against Bacillus subtilis ATCC 6633 assessed as bacterial growth inhibition by agar diffusion method; assay type: functional
[3] = Toxicity in rat; conditions: in vivo
[4] = molecular target: T2, Phospho-N-acetylmuramoyl-pentapeptide-transferase (Escherichia coli K-12, UniProt P0A6W3); assay: Inhibition of MraY in Escherichia coli K12
T2 sequence (P0A6W3 whole entry): T1 sequence (E2QF15 whole entry)

Structure (SMILES)	IC50 [1]	MIC (Bacillus subtilis)	LD50 [3]	further results
NC[C@H]1O[C@@H](O[C@@H](Cn2cc(CCCCCCCCCCc3ccccc3)nn2)[C@H]2O[C@@H](n3ccc(=O)[nH]c3=O)[C@H](O)[C@@H]2O)[C@H](O)[C@@H]1O	8 µM			
CO[C@H]1[C@H](O[C@@H](C2C(=O)N(Cc3ccccc3)C(=O)N2CCCNC(=O)[C@@H](NC(=O)[C@@H](NC(=O)N[C@H](C(=O)O)C(C)C)[C@@H]2CCNC(=N)N2)[C@@H](O)C(C)C)[C@H]2O[C@@H](n3ccc(=O)[nH]c3=O)[C@H](O)[C@@H]2O)O[C@H](CN)[C@H]1O (stereo not given in full)				IC50 [2]: 6.25 µM
NC[C@H]1O[C@@H](O[C@@H](Cn2cc(Cc3ccc(COc4ccc(C(=O)c5ccccc5)cc4)cc3)nn2)[C@H]2O[C@@H](n3ccc(=O)[nH]c3=O)[C@H](O)[C@@H]2O)[C@H](O)[C@@H]1O	8 µM			
CCCCCCCCCCCCN1C(=O)C([C@H](O[C@@H]2O[C@H](CN)[C@@H](O)[C@H]2OC)[C@H]2O[C@@H](n3ccc(=O)[nH]c3=O)[C@H](O)[C@@H]2O)N(CCCNC(=O)[C@@H](NC(=O)[C@@H](NC(=O)N[C@H](C(=O)O)C(C)C)[C@@H]2CCNC(=N)N2)[C@@H](O)C(C)C)C1=O (stereo not given in full)				IC50 [2]: 6.25 µM
CSCC[C@H](NC(=O)N[C@@H](Cc1c[nH]c2ccccc12)C(=O)O)C(=O)N[C@@H](CN(C)C(=O)[C@@H](N)Cc1cccc(O)c1)C(=O)N/C=C1/C[C@@H](O)[C@H](n2ccc(=O)[nH]c2=O)O1		12.5 µg/mL (≈ 14.7 µM)		
CCCCCCCCCCc1cn(C[C@H](O[C@@H]2O[C@H](CN)[C@@H](O)[C@H]2O)[C@H]2O[C@@H](n3ccc(=O)[nH]c3=O)[C@H](O)[C@@H]2O)nn1	8 µM			
CO[C@H]1[C@@H](OC)[C@H](n2ccc(=O)[nH]c2=O)O[C@@H]1[C@@H](O[C@@H]1OC(C(=O)NCCSSCCNC(C)=O)=C[C@@H](O)[C@H]1O)C(N)=O	0.01 µM			
N=C(N)NC[C@H]1O[C@@H](OC[C@H]2O[C@@H](n3ccc(=O)[nH]c3=O)[C@H](O)[C@@H]2O)[C@H](O)[C@@H]1O	25 µM			
CCC(C)CCCCCCCCCCCC/C=C/C(=O)N[C@H]1[C@H](O[C@@H]2O[C@@H](CO)[C@H](O)[C@H](O)[C@H]2NC(C)=O)O[C@H](C[C@@H](C)[C@H]2O[C@@H](n3ccc(=O)[nH]c3=O)[C@H](O)[C@@H]2O)[C@H](O)[C@@H]1O (stereo not given in full)		0.1 µg/mL (≈ 0.113 µM)	0.137 mg/kg	
CO[C@H]1[C@@H](O)[C@H](n2ccc(=O)[nH]c2=O)O[C@@H]1C(OC1OC(C(=O)Nc2ccc(C(O)C(O)C(=O)N/C=C/C(=O)NCC(=O)O)cc2)=CC(O)C1O)C(N)=O (stereo not given in full)				IC50 [2]: 0.011 µM
CC(=O)N[C@H]1[C@H](O[C@@H]2O[C@H](C[C@@H](C)[C@H]3O[C@@H](n4ccc(=O)[nH]c4=O)[C@H](O)[C@@H]3O)[C@H](O)[C@H](O)[C@H]2NC(=O)CCCCCCCCCCCCC(C)C)O[C@@H](CO)[C@H](O)[C@@H]1O		0.1 µg/mL (≈ 0.118 µM)	0.137 mg/kg	
NC[C@H]1O[C@@H](O[C@@H](Cc2cn(CCCCCCCCCCOc3ccc(C(=O)c4ccccc4)cc3)nn2)[C@H]2O[C@@H](n3ccc(=O)[nH]c3=O)[C@H](O)[C@@H]2O)[C@H](O)[C@@H]1O	8 µM			
CC(=O)N[C@H]1[C@H](O[C@@H]2O[C@H](C[C@@H](C)[C@H]3O[C@@H](n4ccc(=O)[nH]c4=O)[C@H](O)[C@@H]3O)[C@H](O)[C@H](O)[C@H]2NC(=O)CC(O)CCCCCCCCCCCCC(C)C)O[C@@H](CO)[C@H](O)[C@@H]1O (stereo not given in full)		0.1 µg/mL (≈ 0.112 µM)	0.137 mg/kg	
CNC[C@H]1O[C@@H](OC[C@H]2O[C@@H](n3ccc(=O)[nH]c3=O)[C@H](O)[C@@H]2O)[C@H](O)[C@@H]1O	25 µM			
CC(=O)N[C@H]1[C@H](O[C@@H]2O[C@H](C[C@@H](C)[C@H]3O[C@@H](n4ccc(=O)[nH]c4=O)[C@H](O)[C@@H]3O)[C@H](O)[C@H](O)[C@H]2NC(=O)CCCCCCCCCCCCCCC(C)C)O[C@@H](CO)[C@H](O)[C@@H]1O		0.1 µg/mL (≈ 0.115 µM)	0.137 mg/kg	
CC(C)[C@H](NC(=O)N[C@H](C(=O)N[C@H](C(=O)NCCCN[C@@H](CC[C@H]1O[C@@H](n2ccc(=O)[nH]c2=O)[C@H](O)[C@@H]1O)C(=O)O)[C@@H](O)C(C)C)[C@@H]1CCNC(=N)N1)C(=O)O	1.7 µM			IC50 [2]: 150 µM
CCC(C)CCCCCCCCCC/C=C/C(=O)N[C@H]1[C@H](O[C@@H]2O[C@@H](CO)[C@H](O)[C@H](O)[C@H]2NC(C)=O)O[C@H](C[C@@H](C)[C@H]2O[C@@H](n3ccc(=O)[nH]c3=O)[C@H](O)[C@@H]2O)[C@H](O)[C@@H]1O (stereo not given in full)		0.1 µg/mL (≈ 0.117 µM)	0.137 mg/kg	
CC(=O)N[C@H]1[C@H](O[C@@H]2O[C@H](C[C@@H](C)[C@H]3O[C@@H](n4ccc(=O)[nH]c4=O)[C@H](O)[C@@H]3O)[C@H](O)[C@H](O)[C@H]2NC(=O)/C=C/CCCCCCCCCCCC(C)C)O[C@@H](CO)[C@H](O)[C@@H]1O		0.1 µg/mL (≈ 0.117 µM)	0.137 mg/kg	
N=CNC[C@H]1O[C@@H](OC[C@H]2O[C@@H](n3ccc(=O)[nH]c3=O)[C@H](O)[C@@H]2O)[C@H](O)[C@@H]1O	25 µM			
CCC(C)CCCCCCCCCCCCCCC(=O)N[C@H]1[C@H](O[C@@H]2O[C@@H](CO)[C@H](O)[C@H](O)[C@H]2NC(C)=O)O[C@H](C[C@@H](C)[C@H]2O[C@@H](n3ccc(=O)[nH]c3=O)[C@H](O)[C@@H]2O)[C@H](O)[C@@H]1O (stereo not given in full)		0.1 µg/mL (≈ 0.113 µM)	0.137 mg/kg	
NC[C@H]1O[C@@H](O[C@@H](CO)[C@H]2O[C@@H](n3ccc(=O)[nH]c3=O)[C@H](O)[C@@H]2O)[C@H](O)[C@@H]1O				IC50 [2]: 5 µM
NC[C@H]1O[C@@H](OC[C@@H]2C[C@@H](O)[C@H](n3ccc(=O)[nH]c3=O)O2)[C@H](O)[C@@H]1O				IC50 [4]: 10 µM
CCC(C)CCCCCCCCCCCCC(=O)N[C@H]1[C@H](O[C@@H]2O[C@@H](CO)[C@H](O)[C@H](O)[C@H]2NC(C)=O)O[C@H](C[C@@H](C)[C@H]2O[C@@H](n3ccc(=O)[nH]c3=O)[C@H](O)[C@@H]2O)[C@H](O)[C@@H]1O (stereo not given in full)		0.1 µg/mL (≈ 0.116 µM)	0.137 mg/kg	
NC[C@H]1O[C@@H](O[C@@H](Cc2cn(Cc3ccc(COc4ccc(C(=O)c5ccccc5)cc4)cc3)nn2)[C@H]2O[C@@H](n3ccc(=O)[nH]c3=O)[C@H](O)[C@@H]2O)[C@H](O)[C@@H]1O	8 µM			
CC(=O)N[C@H]1[C@H](O[C@@H]2O[C@H](C[C@@H](C)[C@H]3O[C@@H](n4ccc(=O)[nH]c4=O)[C@H](O)[C@@H]3O)[C@H](O)[C@H](O)[C@H]2NC(=O)CC(O)CCCCCCCCCCC(C)C)O[C@@H](CO)[C@H](O)[C@@H]1O (stereo not given in full)		0.1 µg/mL (≈ 0.116 µM)	0.137 mg/kg	
CO[C@H]1[C@@H](O)[C@H](n2ccc(=O)[nH]c2=O)O[C@@H]1[C@@H](O[C@@H]1OC(C(=O)N[C@H]2CSC[C@@H](C)NC2=O)=C[C@@H](O)[C@H]1O)C(N)=O	0.058 µM			
CC(=O)N[C@H]1[C@H](O[C@@H]2O[C@H](C[C@@H](C)[C@H]3O[C@@H](n4ccc(=O)[nH]c4=O)[C@H](O)[C@@H]3O)[C@H](O)[C@H](O)[C@H]2NC(=O)/C=C/CCCCCCCCCCCCC(C)C)O[C@@H](CO)[C@H](O)[C@@H]1O		0.1 µg/mL (≈ 0.115 µM)	0.137 mg/kg	
CC(=O)N[C@H]1[C@H](O[C@@H]2O[C@H](C[C@@H](C)[C@H]3O[C@@H](n4ccc(=O)[nH]c4=O)[C@H](O)[C@@H]3O)[C@H](O)[C@H](O)[C@H]2NC(=O)/C=C/CCCCCCCCCCC(C)C)O[C@@H](CO)[C@H](O)[C@@H]1O		0.1 µg/mL (≈ 0.119 µM)	0.137 mg/kg	

— ChEMBL document CHEMBL5257035, “Nucleoside Derived Antibiotics to Fight Microbial Drug Resistance: New Utilities for an Established Class of Drugs?” (J Med Chem, 2016)
